Reference: patent US12448388B2, “PRMT5 inhibitors and uses thereof” (Gilead Sciences, Inc., priority 2023, dated 2025)
Where two headings read alike, the source gives them in different places.

Columns and labels:
[1] = tested on: Symmetric Di-methyl Arginine (SDMA) signal (PRMT5 inhibition) in HCT116 MTAP-deleted cells; test: Symmetric di-methyl arginine image-based high content screen assay (SDMA assay), HCT116 MTAP-deleted; type: cell-based; details: for EC50 selectivity: HCT116 WT versus HCT116 MTAP-deleted; for EC50: Homo sapiens, HCT-116, HCT116 MTAP-deleted, class symbols
Outline: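 HCT116 WT and MTAP-deleted cells (800/well, RPMI 1640 + 10% FBS) treated with compound 3 days at 37 °C; formalin-fixed, stained with anti-SDMA antibody/Alexa 488 plus DAPI. Mean SDMA intensity per DAPI-defined cell imaged; EC50 from 4-parameter logistic fit.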

[2] = tested on: HCT116 MTAP-deleted cell lines; test: Cell viability assay (CellTiter-Glo, 7 days), HCT116 MTAP-deleted; type: cell-based; details: Homo sapiens, HCT-116
Outline: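 HCT116 MTAP-deleted and wild-type cells exposed to serially diluted compound for 7 days at 37 °C, 5% CO2. Viability read by CellTiter-Glo luminescence; CC50 derived per line, with selectivity comparing WT to MTAP-deleted, limited solubility can inflate values marked *.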

[3] = cell viability, HCT116 MTAP-deleted, class symbols, read-out: CC50

EC50 selectivity [1] | EC50 [1] | SMILES | CC50 [2, 3] | CC50 [2]
62 | 1 to 5 nM | Nc1nc2ccc(C(=O)N(Cc3ccc(C(F)(F)F)cn3)C34CC(C3)C4)cc2n2cncc12 [Fe-1, 4-amino-N-(bicyclo[1.1.1]pentan-1-yl)-N-((5-(trifluoromethyl)pyridin-2-yl)methyl)imidazo[1,5-a]quinoxaline-8-carboxamide] | < 100 nM | –
5 | ≤ 1 nM | C[C@H](c1ncccn1)N(Cc1ccc(C(F)(F)F)cn1)C(=O)c1ccc2nc(N)c3cncn3c2c1 [Fe-2, (R)-4-amino-N-(1-(pyrimidin-2-yl)ethyl)-N-((5-(trifluoromethyl)pyridin-2-yl)methyl)imidazo[1,5-a]quinoxaline-8-carboxamide] | < 100 nM | –
37 | ≤ 1 nM | Nc1nc2cc(F)c(C(=O)N(Cc3ccc(C(F)(F)F)cn3)C34CC(C3)C4)cc2n2cncc12 [Ff-1, 4-amino-N-(bicyclo[1.1.1]pentan-1-yl)-7-fluoro-N-((5-(trifluoromethyl)pyridin-2-yl)methyl)imidazo[1,5-a]quinoxaline-8-carboxamide] | < 100 nM | –
2956 | > 5 nM | Nc1nc2cc(F)c(C(=O)N3CCC(c4ccc(C(F)(F)F)cc4F)C3)cc2n2cncc12 (stereo not drawn) [Ff-4, (4-amino-7-fluoroimidazo[1,5-a]quinoxalin-8-yl)(3-(2-fluoro-4-(trifluoromethyl)phenyl)pyrrolidin-1-yl)methanone] | 100 to 1000 nM | –
334 | > 5 nM | CN(Cc1cccc2ccoc12)C(=O)c1ccc2nc(N)c3cncn3c2c1 [Ff-5, 4-amino-N-(benzofuran-7-ylmethyl)-N-methylimidazo[1,5-a]quinoxaline-8-carboxamide] | > 1000 nM | –
71 | > 5 nM | Nc1nc2cc(F)c(C(=O)N(Cc3ccc(Cl)cc3F)C34CC(C3)C4)cc2n2cncc12 [Ff-6, 4-amino-N-(bicyclo[1.1.1]pentan-1-yl)-N-(4-chloro-2-fluorobenzyl)-7-fluoroimidazo[1,5-a]quinoxaline-8-carboxamide] | 100 to 1000 nM | –
33 | ≤ 1 nM | CC(C)N(Cc1ccc(C(F)(F)F)cn1)C(=O)c1cc2c(cc1F)nc(N)c1cncn12 [Ff-7, 4-amino-7-fluoro-N-isopropyl-N-((5-(trifluoromethyl)pyridin-2-yl)methyl)imidazo[1,5-a]quinoxaline-8-carboxamide] | < 100 nM | –
299 | ≤ 1 nM | CCN(C(=O)c1ccc2nc(N)c3cncn3c2c1)[C@@H]1COc2cc(C(F)(F)F)ccc21 [Ff-8, (S)-4-amino-N-ethyl-N-(6-(trifluoromethyl)-2,3-dihydrobenzofuran-3-yl)imidazo[1,5-a]quinoxaline-8-carboxamide] | < 100 nM | –
106 | ≤ 1 nM | CCN(C(=O)c1cc2c(cc1F)nc(N)c1cncn12)[C@@H]1COc2cc(C(F)(F)F)ccc21 [Ff-9, (S)-4-amino-N-ethyl-7-fluoro-N-(6-(trifluoromethyl)-2,3-dihydrobenzofuran-3-yl)imidazo[1,5-a]quinoxaline-8-carboxamide] | < 100 nM | –
352 | ≤ 1 nM | CN(C(=O)c1ccc2nc(N)c3cncn3c2c1)[C@@H]1COc2cc(C(F)(F)F)ccc21 [Ff-11, (S)-4-amino-N-methyl-N-(6-(trifluoromethyl)-2,3-dihydrobenzofuran-3-yl)imidazo[1,5-a]quinoxaline-8-carboxamide] | < 100 nM | –
196 | ≤ 1 nM | CN(C(=O)c1cc2c(cc1F)nc(N)c1cncn12)[C@@H]1COc2cc(C(F)(F)F)ccc21 [Ff-12, (S)-4-amino-7-fluoro-N-methyl-N-(6-(trifluoromethyl)-2,3-dihydrobenzofuran-3-yl)imidazo[1,5-a]quinoxaline-8-carboxamide] | < 100 nM | –
176 | ≤ 1 nM | CN(C(=O)c1cc2c(cc1F)nc(N)c1cncn12)C1CCc2nc(C(F)(F)F)ccc21 (stereo not drawn) [Ff-13, 4-amino-7-fluoro-N-methyl-N-(2-(trifluoromethyl)-6,7-dihydro-5H-cyclopenta[b]pyridin-5-yl)imidazo[1,5-a]quinoxaline-8-carboxamide] | < 100 nM | –
241 | ≤ 1 nM | CN(C(=O)c1cc2c(cc1F)nc(N)c1cncn12)[C@@H]1COCc2cc(Br)ccc21 [Ff-14, (S)-4-amino-N-(7-bromoisochroman-4-yl)-7-fluoro-N-methylimidazo[1,5-a]quinoxaline-8-carboxamide] | < 100 nM | –
253 | 1 to 5 nM | Cc1ncc2c(N)nc3ccc(C(=O)N(C)[C@@H]4COc5cc(C#CC6CCCO6)ccc54)cc3n12 (stereo partly drawn) [Ff-17, 4-amino-N,1-dimethyl-N-((3S)-6-((tetrahydrofuran-2-yl)ethynyl)-2,3-dihydrobenzofuran-3-yl)imidazo[1,5-a]quinoxaline-8-carboxamide] | 100 to 1000 nM | –
447 | > 5 nM | COC(C)(C)C#Cc1ccc2c(c1)OC[C@H]2N(C)C(=O)c1ccc2nc(N)c3cnc(C)n3c2c1 [Ff-18, (S)-4-amino-N-(6-(3-methoxy-3-methylbut-1-yn-1-yl)-2,3-dihydrobenzofuran-3-yl)-N,1-dimethylimidazo[1,5-a]quinoxaline-8-carboxamide] | 100 to 1000 nM | –
129 | > 5 nM | Cc1ncc2c(N)nc3ccc(C(=O)N(C)[C@@H]4COc5cc(C#CC6(O)CC6)ccc54)cc3n12 [Ff-19, (S)-4-amino-N-(6-((1-hydroxycyclopropyl)ethynyl)-2,3-dihydrobenzofuran-3-yl)-N,1-dimethylimidazo[1,5-a]quinoxaline-8-carboxamide] | 100 to 1000 nM | –
382 | 1 to 5 nM | Cc1ncc2c(N)nc3ccc(C(=O)N(C)[C@@H]4COc5cc(C#CC6(C)COC6)ccc54)cc3n12 [Ff-20, (S)-4-amino-N,1-dimethyl-N-(6-((3-methyloxetan-3-yl)ethynyl)-2,3-dihydrobenzofuran-3-yl)imidazo[1,5-a]quinoxaline-8-carboxamide] | < 100 nM | –
874 | 1 to 5 nM | Cc1ncc2c(N)nc3ccc(C(=O)N(C)[C@@H]4COc5nc(C(F)(F)F)ccc54)cc3n12 [Ff-21, (S)-4-amino-N,1-dimethyl-N-(6-(trifluoromethyl)-2,3-dihydrofuro[2,3-b]pyridin-3-yl)imidazo[1,5-a]quinoxaline-8-carboxamide] | 100 to 1000 nM | –
587 | 1 to 5 nM | CN(C(=O)c1cc2c(cc1F)nc(N)c1cncn12)[C@@H]1COc2nc(C(F)(F)F)ccc21 [Ff-22, (S)-4-amino-7-fluoro-N-methyl-N-(6-(trifluoromethyl)-2,3-dihydrofuro[2,3-b]pyridin-3-yl)imidazo[1,5-a]quinoxaline-8-carboxamide] | < 100 nM | –
48 | 1 to 5 nM | Nc1nc2cc(F)c(C(=O)N(Cc3ccc(-c4cnn(C(F)(F)F)c4)cc3F)C34CC(C3)C4)cc2n2cncc12 [Ff-23, 4-amino-N-(bicyclo[1.1.1]pentan-1-yl)-7-fluoro-N-(2-fluoro-4-(1-(trifluoromethyl)-1H-pyrazol-4-yl)benzyl)imidazo[1,5-a]quinoxaline-8-carboxamide] | < 100 nM | –
1985 | 1 to 5 nM | CN(Cc1ccc(-c2cnn(C(F)(F)F)c2)cc1F)C(=O)c1cc2c(cc1F)nc(N)c1cncn12 [Ff-24, 4-amino-7-fluoro-N-(2-fluoro-4-(1-(trifluoromethyl)-1H-pyrazol-4-yl)benzyl)-N-methylimidazo[1,5-a]quinoxaline-8-carboxamide] | 100 to 1000 nM | –
312 | 1 to 5 nM | CCN(Cc1ccc(C(F)(F)F)cc1F)C(=O)c1ccc2nc(N)c3cncn3c2c1 [Ff-25, 4-amino-N-ethyl-N-[[2-fluoro-4-(trifluoromethyl)phenyl]methyl]imidazo[1,5-a]quinoxaline-8-carboxamide] | < 100 nM | –
210 | ≤ 1 nM | CCN(Cc1ccc(C(F)(F)F)cc1F)C(=O)c1cc2c(cc1F)nc(N)c1cncn12 [Ff-26, 4-amino-N-ethyl-7-fluoro-N-[[2-fluoro-4-(trifluoromethyl)phenyl]methyl]imidazo[1,5-a]quinoxaline-8-carboxamide] | < 100 nM | –
51 | > 5 nM | Nc1nc2cc(F)c(C(=O)N(Cc3ccc(C(F)(F)F)cc3F)C(CO)CO)cc2n2cncc12 [Ff-27, 4-amino-7-fluoro-N-[[2-fluoro-4-(trifluoromethyl)phenyl]methyl]-N-[2-hydroxy-1-(hydroxymethyl)ethyl]imidazo[1,5-a]quinoxaline-8-carboxamide] | > 1000 nM | –
308 | 1 to 5 nM | Nc1nc2cc(F)c(C(=O)N3CCC4CC3c3ccc(C(F)(F)F)cc34)cc2n2cncc12 (stereo not drawn) [Ff-29, (4-amino-7-fluoroimidazo[1,5-a]quinoxalin-8-yl)(7-(trifluoromethyl)-1,3,4,5-tetrahydro-2H-1,5-methanobenzo[c]azepin-2-yl)methanone] | 100 to 1000 nM | –

SMILES | EC50 selectivity [1] | EC50 [1] | CC50 [2, 3] | CC50 [2]
CN(C(=O)c1cc2c(cc1Cl)nc(N)c1cncn12)[C@@H]1COc2cc(C(F)(F)F)ccc21 [Ff-10, (S)-4-amino-7-chloro-N-methyl-N-(6-(trifluoromethyl)-2,3-dihydrobenzofuran-3-yl)imidazo[1,5-a]quinoxaline-8-carboxamide] | 88 | ≤ 1 nM | – | < 100 nM
